Patent publication US8383088B2, “Coumestan-like antioxidants and UV absorbants” (BASF SE, priority 2007, dated 2013)

test: DPPH assay of antioxidative (antiradical) activity; details: measured in EC50 and 1/EC50 values
From the text: For tests of antioxidative activity, the DPPH assay is used. DPPH (2,2-Diphenyl-1-picrylhydrazyl) is a stable radical, which absorbs in its radical form at 515 nm. Upon reduction by an antioxidant (AH), the absorption disappears:
The rate of reaction (1) can be rather different for different antioxidants. In the case of the vitamins C and E, the equilibrium is reached in several minutes, however for other antioxidants it may also take hours. In the test, the ratio of the molar concentrations of the antioxidant and DPPH is varied (this ratio is named “EC”=efficient concentration), and the concentration of DPPH in the equilibrium state is measured for each ratio. Antiradical activity is defined as the amount of antioxidant necessary to decrease the initial DPPH-concentration by 50%, and is characterized by the so-called EC50 value. The smaller the EC50 value, the more efficient is the antioxidant. Thus, the inverse, 1/EC50, can be used to quantify the antiradical power.
Solutions of DPPH and the antioxidants in ethanol are prepared separately and added together for starting the reaction (0.5 cm^3 of a 250 μM antioxidant solution is added to 2.5 cm^3 of a 100 μM DPPH solution). The absorption is measured using a Perkin Elmer Lambda 20 spectrophotometer.

SMILES	antioxidant/radical power compared to state-of-the-art antioxidants (101) and (102)
Cc1cc2oc3cc(O)c(O)cc3c2c(=O)o1 [Compound A-2, 7,8-dihydroxy-3-methyl-1H-pyrano[4,3-b]benzofuran-1-one]	significantly higher antioxidant/radical power
Cl.NCCCCCc1cc2oc3cc(O)c(O)cc3c2c(=O)o1 [Compound A-23]	significantly higher antioxidant/radical power
COc1c(O)c(O)cc2c1oc1cc(C)oc(=O)c12 [Compound A-1, 7,8-dihydroxy-6-methoxy-3-methyl-1H-pyrano[4,3-b]benzofuran-1-one]	significantly higher antioxidant/radical power
